From patent US20220274967A1, “BCAT MODULATION” (Icagen, LLC, priority 2019, published 2022)
Where two headings read alike, the source gives them in different places.

How the values were obtained:
BCAT1 = biological target: T1, BCAT1 (Homo sapiens, UniProt P54687); assay: BCAT1 enzyme inhibition (human), Glutamate Glo luminescence; assay type: biochemical
T1 sequence (P54687 1-386): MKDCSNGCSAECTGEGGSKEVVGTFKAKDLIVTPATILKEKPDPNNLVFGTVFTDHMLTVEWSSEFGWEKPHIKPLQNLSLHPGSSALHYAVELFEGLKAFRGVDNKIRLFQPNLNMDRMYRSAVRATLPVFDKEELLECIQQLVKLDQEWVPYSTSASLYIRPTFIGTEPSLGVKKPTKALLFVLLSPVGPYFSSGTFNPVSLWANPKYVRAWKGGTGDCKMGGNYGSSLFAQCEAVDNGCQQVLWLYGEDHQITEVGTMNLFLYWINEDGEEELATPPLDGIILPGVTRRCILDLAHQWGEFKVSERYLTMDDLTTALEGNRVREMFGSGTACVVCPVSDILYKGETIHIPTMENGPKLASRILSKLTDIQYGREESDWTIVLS
Experimental: The BCAT1 inhibitory activity of selected compounds of the present disclosure were also evaluated. Compounds were prepared as up to 10 mM stock solutions generally using DMSO as the vehicle. 10-point dose response curves were generated using the Echo-550 (Labcyte) acoustic dispenser. Compound source plates ([…]) were made by serially diluting compound stocks to create 1 mM, 0.1 mM, and 0.01 mM solutions in DMSO into Echo certified LDV plates. The Echo then serially spotted 100% DMSO stock solutions into source dose response plates to generate a semi-log fold dilution scheme. 100% DMSO was added to the spotted dose response plates to bring the final volume to 5 μL, creating a 333× stock plate. 120 nL of the dose response stock plate was then spotted into the assay plate. 10 μL of assay buffer (50 mM Tris with 0.05% TWEEN-20) was then added to the plates resulting in a 4× working concentration in the assay plate. Final assay test concentration range was 3 μM to 0.0001 μM with a final DMSO concentration of 0.3%.
BCAT1 enzyme stock was first diluted to a 4× working concentration of 0.24 μg/mL in assay buffer (final assay concentration is 0.06 ug/ml). 10 μL of the 4×BCAT1 solution was then added to the previously prepared assay plate containing test compound or controls, and incubated at room temperature, protected from light, for either 10 or 60 minutes. After the compound incubation period, 20 μL of assay buffer plus 2× substrate is added to all wells (Final assay concentration of substrates is 300 μM L-leucine and 250 μM alpha-ketoglutaric acid). Enzyme reaction was then incubated for 10 minutes at room temperature. After the 10 minute incubation, the enzymatic reaction was halted with the addition of 5 μL of 0.6N HCl and incubated for 1 min. 5 μL of 1M Tris (pH 8.0) was then added to neutralize pH. 12.5 μL of the quenched assay volume was then transferred to a white, 384 well plate and 12.5 μL of Glutamate detection reagent was added (detection reagent prepared per Promega Glutamate Glo kit instructions). Plates were then incubated for 30 minutes at room temperature, protected from light. After glutamate detection incubation period, luminescence was read on BMG Novostar and relative light units was measured and exported for analysis.
Compound modulation of BCAT1 enzymatic activity was determined as follows. IC50 values were calculated in ActivityBase, using a 4-parameter fit equation. Data was normalized to maximum inhibition form the reference agent VS558CSA (at 10 μM). Relative light units were exported for analysis and % inhibition values for each well were calculated using the following formula: […]

BCAT2 = biological target: T2, BCAT2 (Homo sapiens, UniProt O15382); assay: BCAT2 enzyme inhibition (human); assay type: biochemical
T2 sequence (O15382 28-392): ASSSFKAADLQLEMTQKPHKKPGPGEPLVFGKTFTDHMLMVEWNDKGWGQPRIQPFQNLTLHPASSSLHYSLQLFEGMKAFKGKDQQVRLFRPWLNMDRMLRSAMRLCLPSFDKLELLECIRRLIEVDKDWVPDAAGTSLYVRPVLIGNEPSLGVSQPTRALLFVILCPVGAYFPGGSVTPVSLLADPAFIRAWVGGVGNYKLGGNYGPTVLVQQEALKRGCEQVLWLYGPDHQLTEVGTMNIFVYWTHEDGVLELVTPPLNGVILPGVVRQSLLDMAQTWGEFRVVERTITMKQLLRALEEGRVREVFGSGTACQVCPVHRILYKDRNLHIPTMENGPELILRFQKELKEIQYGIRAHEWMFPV
Experimental: In further embodiments, the functional modulation of BCAT2 is assayed using a cell-free assay. In various embodiments, the cell-free assay is an enzyme-coupled fluorescent assay. For example, the disclosure contemplates use of an assay that monitors the production of L-glutamate from branch-chain amino acids and α-ketoglutarate through the coupling of hBCATm activity to two additional enzymes, L-Glutamate Oxidase (L-GOx) and Horseradish Peroxidase (HRP). Specifically, L-GOx catabolizes L-glutamate to generate α-ketoglutarate and […], the latter being utilized by HRP and leading to the formation of fluorescent resorufin from the redox-sensitive dye Amplex Red. In some embodiments, the test compound is classified as a candidate compound if a decrease in L-glutamate is measured. In further embodiments, the test compound is classified as a candidate compound if a decrease in α-ketoglutarate is measured.

GM00371 cells = assay: Viability assay (Cell titer glo) in the 3-HIB assay; assay type: cell-based, human; details: read-out: 3HIB INHIBITION IC50 (μM) MEAN GM00371 cells Viablility Assay
Experimental: Cell Plating: Cells (Coriell Institute GM00371 cells) were plated (96-well clear bottom sterile plate; Greiner 655098) at 10,000 cells/0.1 mL in Eagle's minimum essential medium (EMEM)/15% FBS (Gibco 16000-044) with a Combi dispenser in a cell culture hood and incubated at 37° C. and 5% CO2 overnight.
Compound Dilution: Compound were prepared as 33.3× intermediate dilution in DMSO in 96 well round polystyrene plates. For 30 μM final maximum start with 30 μL of 10 mM in DMSO. 10-12 1:3 serial dilutions were prepared from left to right (20 μL+40 μL DMSO). A 10× secondary dilution was prepare in EMEM by taking 7.5 μL 33.3× and transfer to replicate 96 well round polystyrene plates and then adding 242.5 μL EMEM A 1× final dilution in EMEM was prepared by taking 50 μL 10× dilution and transferring to replicate 96 well polypropylene assay block (Costar 3956) and adding 450 μL EMEM A control was prepared for maximal compound inhibition by taking 20 μL 10 mM Reference Compound A and adding 40 μL DMSO for a concentration of 3.3 mM To 7.5 μL of the 3.3 mM Reference Compound A solution and added 242.5 μL EMEM to make a 100 μM solution. The subsequent Reference Compound A solution was diluted with EMEM to achieve a final concentration of 10 μM. The structure of Reference Compound A is:
A control was prepared for maximal compound toxicity by taking 7.5 μL Reference Compound B and 242.5 μL EMEM to make […]. 50 μL of that 100 μM Reference Compound B solution was combined with 450 μL EMEM to achieve a concentration of 30 μM. The structure of Reference Compound B is
Compound Treatment: Media was aspirated from the cells and 100 μL of D-PBS (ThermoFisher 14190144) was added and then removed. 100 μL of diluted compound was added to the cells in the place and the cells were incubated at 37° C. and 5% CO2 for 24 hours.
Viability Assay: To the cells remaining in the plate 25 μL D-PBS and 25 μL Cell titer glo reagent (Promega G7572). The plate was placed on a shaker for 2 minutes, incubated at room temperature in the dark and then read on a Clariostar microplate reader.

| IC50 (BCAT1) | IC50 (BCAT2) | Structure (SMILES) | IC50 (GM00371 cells; Homo sapiens, 24 h) | IC50 (GM00371 cells; 24 hours) |
| --- | --- | --- | --- | --- |
| ≥ 1000 nM | > 1000 nM | CNC(=O)c1ccc2c(c1)nc(-c1ccccn1)n2C1CCCN(C(=O)Nc2cccc(Cl)c2)C1 (stereo not drawn) [Compound 217] |  |  |
| ≥ 1000 nM | > 1000 nM | CNC(=O)c1ccc2c(c1)nc(-c1cccc(F)c1)n2C1CCCN(C(=O)Nc2ccccc2Cl)C1 (stereo not drawn) [Compound 227] |  |  |
| ≥ 1000 nM | > 1000 nM | CNC(=O)c1ccc2c(c1)nc(-c1cccc(F)c1)n2C1CCCN(C(=O)Nc2cccs2)C1 (stereo not drawn) [Compound 228] |  |  |
| ≥ 1000 nM | > 1000 nM | CNC(=O)c1ccc2c(c1)nc(-c1cccc(F)c1)n2C1CCCN(C(=O)Nc2ccc(Br)s2)C1 (stereo not drawn) [Compound 229] |  |  |
| ≥ 1000 nM | < 100 nM | CNC(=O)c1cc2nc(-c3c(F)ccc(F)c3O)n([C@H]3CCC[C@@H](NC(=O)c4ccc(Cl)s4)C3)c2cc1F [Compound 231] |  |  |
|  | > 1000 nM | CNC(=O)c1ccc2c(C3CCCC(NC(=O)c4ccc(Br)s4)C3)c(-c3ccccc3)[nH]c2c1 (stereo not drawn) [Compound 283, 3-(3-(5-bromothiophene-2-carboxamido)cyclohexyl)-N-methyl-2 phenyl-1H-indole-6-carboxamide] | ≥ 1 µM |  |
|  | > 1000 nM | CNC(=O)c1ccc2c(C3CCCC(NC(=O)c4cccs4)C3)c(-c3ccccc3)[nH]c2c1 (stereo not drawn) [Compound 290] | ≥ 1 µM |  |
|  | < 100 nM | CNC(=O)c1cc2nc(-c3ccccc3)n([C@H]3CCC[C@@H](NC(=O)c4ccc(Br)s4)C3)c2cn1 [Compound 297] | 0.1 to 0.5 µM |  |
|  | > 1000 nM | CNC(=O)c1ccc2c(C3CCCC(NC(=O)c4ccc(-c5ccccc5)s4)C3)c(-c3ccccc3)[nH]c2c1 (stereo not drawn) [Compound 304] | ≥ 1 µM |  |

The remaining lines, values behind:

| Structure (SMILES) | IC50 (BCAT1) | IC50 (BCAT2) | IC50 (GM00371 cells; Homo sapiens, 24 h) | IC50 (GM00371 cells; 24 hours) |
| --- | --- | --- | --- | --- |
| CNC(=O)c1ccc2c(c1)nc(-c1ccccn1)n2[C@@H]1CCC[C@@H](NC(=O)c2ccc(Br)s2)C1 [Compound 101] | ≥ 1000 nM |  |  |  |
| CNC(=O)c1ccc2c(c1)nc(-c1ncccn1)n2[C@H]1CCC[C@@H](NC(=O)c2ccc(Br)s2)C1 [Compound 147] | ≥ 1000 nM | < 100 nM |  |  |
| CNC(=O)c1ccc2c(c1)nc(-c1cnccn1)n2[C@H]1CCC[C@@H](NC(=O)c2ccc(Br)s2)C1 [Compound 149] | ≥ 1000 nM | 100 to 500 nM |  |  |
| CNC(=O)c1ccc2c(c1)nc(-c1ccc(O)cn1)n2[C@H]1CCC[C@@H](NC(=O)c2ccc(C#N)s2)C1 [Compound 173] | ≥ 1000 nM | > 1000 nM |  |  |
| CNC(=O)c1ccc2c(c1)nc(-c1c(O)ccc(F)c1F)n2[C@H]1CCC[C@@H](NC(=O)c2ccc(Br)s2)C1 [Compound 180] | 500 to 1000 nM | < 100 nM |  |  |
| N#Cc1ccc2c(c1)nc(-c1ccccn1)n2[C@H]1CCC[C@@H](NC(=O)c2ccc(Br)s2)C1 [Compound 194] | ≥ 1000 nM | < 100 nM |  |  |
| N#Cc1ccc2c(c1)nc(-c1ccccn1)n2[C@H]1CCC[C@@H](NC(=O)c2ccc(Cl)s2)C1 [Compound 195] | ≥ 1000 nM | < 100 nM |  |  |
| CNC(=O)c1ccc2c(c1)nc(-c1ccccc1F)n2[C@H]1CCC[C@@H](C(=O)Nc2ccccc2)C1 [Compound 202] | ≥ 1000 nM | > 1000 nM |  |  |
| CNC(=O)c1ccc2c(c1)nc(-c1ccccc1C#N)n2[C@H]1CCC[C@@H](C(=O)Nc2ccccc2)C1 [Compound 203] | ≥ 1000 nM | > 1000 nM |  |  |
| CCCNC(=O)c1ccc2c(c1)nc(-c1ccccn1)n2[C@@H]1CCC[C@H](NC(=O)c2ccc(Br)s2)C1 [Compound 204] | ≥ 1000 nM | 100 to 500 nM |  |  |
| CNC(=O)c1cc2nc(-c3ccccc3F)n([C@H]3CCC[C@@H](NC(=O)c4ccc(Br)s4)C3)c2cc1OC [Compound 213] |  | < 100 nM | < 0.1 µM |  |
| CNC(=O)c1cc2nc(-c3ccccn3)n([C@H]3CCC[C@@H](NC(=O)c4ccc(Cl)s4)C3)c2cc1OC [Compound 214] |  | < 100 nM | 0.1 to 0.5 µM |  |
| CNC(=O)c1ccc2c(c1)nc(-c1c(F)cccc1F)n2[C@H]1CCC[C@@H](NC(=O)c2ccc(Br)s2)C1 [Compound 215] |  | < 100 nM |  | 0.1 to 0.5 µM |
| CNC(=O)c1ccc2c(c1)nc(-c1cccc(F)n1)n2[C@H]1CCC[C@@H](NC(=O)c2ccc(Br)s2)C1 [Compound 216] |  | < 100 nM | ≥ 1 µM |  |
